Measured values as given in patent publication US9611295B2, “Treatment of IL-17 mediated disease by blocking SEFIR-SEFIR interactions” (THE CLEVELAND CLINIC FOUNDATION, priority 2011, dated 2017).

How the values were obtained:
[1] = system: IL-25-induced pulmonary inflammation; experiment: IL-25-induced pulmonary inflammation in BALB/c mice; assay type: in vivo, mouse
Experimental: FIG. 5 provides bar graph and staining data showing that a cell-permeable CC′ loop decoy peptide inhibits IL-17- and IL-25-induced pulmonary inflammation. Wild-type (WT) female BALB/c mice (n=4 mice per group) were pretreated with DMSO, scrambled peptide, or the CC′ loop decoy peptide for 4 hours, after which they were administered saline, IL-17, or IL-25 intranasally. Mice were sacrificed and analyzed 16 hours after injection with IL-17 or 4 days after injection with IL-25. […] All experiments were performed three times. *P<0.05.
It has been shown that Act1 plays an essential role in IL-17- and IL-25-mediated pulmonary inflammation. Thus, the inventors examined whether the Act1 SEFIR domain CC′ loop decoy peptide ameliorated IL-17- and IL-25-induced airway inflammation in vivo. BALB/c mice were pretreated with scrambled peptide or with the Act1 SEFIR domain CC′ loop decoy peptide for 4 hours, after which we injected the mice intranasally with IL-17 or IL-25. […] Consistently, IL-17-induced lung and airway recruitment of granulocytes was reduced in mice pretreated with the CC′ loop decoy peptide compared to that in mice pretreated with the scrambled peptide (FIG. 5C). The lower grade of pulmonary inflammation in the mice treated with the CC′ loop decoy peptide correlated with the decreased IL-17-dependent expression of genes encoding MCP-1 and GM-CSF in the lung tissues (FIG. 5D). […] IL-25-induced lung and airway recruitment of granulocytes, predominantly eosinophils, as well as mucin production, as determined by Periodic acid-Schiff (PAS) staining, were reduced in mice pretreated with the CC′ loop decoy peptide compared to that in mice pretreated with the scrambled peptide (FIG. 5G). The decreased pulmonary inflammation in […] correlated with decreased expression of genes encoding the TH2-type cytokines IL-5 and IL-13 in the lungs (FIG. 5H).
Intranasal injection of mice with IL-17 and IL-25: Wild-type BALB/c female mice were pretreated with dimethyl sulfoxide (DMSO, the solvent for peptides), scrambled peptide, or the CC′ loop decoy peptide for 4 hours, after which they underwent intranasal administration of saline, IL-17 (4 μg/mouse), or IL-25 (4 μg/mouse). For IL-25-treated mice, decoy peptides were administrated daily through intranasal injection after pretreatment. Mice were anesthetized with isoflurane and sacrificed. BAL fluid was collected 16 hours after injection with IL-17 or 4 days after injection with IL-25. A total of 0.7 ml of HL-1 medium (BioWhittaker®) was used to obtain BAL fluid through trachea with a blunt needle and a 1-ml syringe. Cytospin slide preparations were obtained with a Shandon CytoSpin III Cytocentrifuge (Shandon/Thermo Scientific). Differential leukocyte counts were obtained on cytospin slide preparations after incubation with Diff Quik Giemsa stain. Cytokines in the BAL were analyzed by MultipleX plate (Invitrogen®). H&E and PAS staining were performed on lung tissues after fixation in 10% neutral-buffered formalin and paraffin embedding to detect pulmonary inflammation and for assessment of goblet cell metaplasia and mucin accumulation in airway epithelial cells.

[2] = system: IL-25-mediated expression of Il13; experiment: IL-25-mediated Il13 mRNA expression in MEFs, real-time RT-PCR; assay type: cell-based, mouse; conditions: peptides 200 μM for 24 hours, then IL-25 for 3 hours
Experimental: (§1) FIG. 4 provides data showing that a cell-permeable CC′ loop decoy peptide disrupts the interaction between Act1 and IL-17RA and inhibits IL-17R and IL-25R signaling. FIG. 4A provides sequences of Antennapedia homeodomain (Antp) (SEQ ID NO: 11)and decoy peptides (SEQ ID NOS 23-25 and 17, respectively, in order of appearance) with the Antp sequence underlined. FIG. 4B provides flow cytometry results based on experiments in which MEFs expressing IL-17RB were incubated for 2 or 24 hours with the indicated FITC-tagged peptides (200 μM) and were then analyzed by flow cytometry. […] The percentages of FITC-positive cells in the treated samples are shown. […] FIG. 4D provides Western blot results of experiments in which MEFs expressing IL-17RB were incubated with the indicated peptides (200 μM) for 24 hours after which they were treated with IL-17 or IL-25 and then analyzed by Western blotting with the indicated antibodies. […] The abundances of Cxcl1 and Il13 mRNAs were then measured by real-time RT-PCR. […]
(§2) Decoy peptides are based on surface-exposed regions of the primary sequence of a protein to mimic a putative interaction interface. […] These decoy peptides were also tagged at their C-termini with fluorescein isothiocyanate (FITC) to enable their cell-penetrating efficiency to be evaluated by flow cytometric sanalysis. […]

[3] = system: IL-25-dependent signaling; experiment: IL-25-dependent signaling in MEFs by Western blotting (pIκB, pJNK, pERK, pp38 MAPK); assay type: cell-based, mouse
Experimental: FIG. 4 provides data showing that a cell-permeable CC′ loop decoy peptide disrupts the interaction between Act1 and IL-17RA and inhibits IL-17R and IL-25R signaling. FIG. 4A provides sequences of Antennapedia homeodomain (Antp) (SEQ ID NO: 11)and decoy peptides (SEQ ID NOS 23-25 and 17, respectively, in order of appearance) with the Antp sequence underlined. FIG. 4B provides flow cytometry results based on experiments in which MEFs expressing IL-17RB were incubated for 2 or 24 hours with the indicated FITC-tagged peptides (200 μM) and were then analyzed by flow cytometry. […] The percentages of FITC-positive cells in the treated samples are shown. FIG. 4C provides Western blot results of experiments in which HeLa cells were cotransfected with plasmids encoding FLAG-tagged mAct1 and V5-tagged IL-17RA and were cultured for 24 hours, after which they were incubated for 24 hours with the indicated peptides (200 μM). IL-17RA was immunoprecipitated from the samples with antibody against the V5 tag, and samples were then subjected to Western blotting analysis with the indicated antibodies. FIG. 4D provides Western blot results of experiments in which MEFs expressing IL-17RB were incubated with the indicated peptides (200 μM) for 24 hours after which they were treated with IL-17 or IL-25 and then analyzed by Western blotting with the indicated antibodies. FIG. 4E provides bar graphs showing the results of experiments in which MEFs expressing IL-17RB were incubated with the indicated peptides (200 μM) for 24 hours, after which they were treated with IL-17 or IL-25 for 3 hours. The abundances of Cxcl1 and Il13 mRNAs were then measured by real-time RT-PCR. […]
as §2

[4] = system: IL-17-dependent signaling; experiment: IL-17-dependent signaling in MEFs by Western blotting (pIκB, pJNK, pERK, pp38 MAPK); assay type: cell-based, mouse
Experimental: as §1, §2

[5] = MEFs expressing IL-17RB, peptides 200 μM, 24 hours

DRQIKIWFQNRRMKWKKLDEDEHGLHTKY [CC′ loop decoy peptide]
dose dependence of inhibition of IL-25-induced pulmonary inflammation ([1]; data not shown): dose-dependent manner
IL-5 in BAL ([1]; intranasal IL-25, 4 days): substantially attenuated
IL-13 in BAL ([1]; intranasal IL-25, 4 days): substantially attenuated
IL-25-induced eosinophilia (eosinophils in BAL) ([1]; intranasal IL-25, 4 days, vs scrambled peptide, listed as Act1 SEFIR domain CC′ loop decoy peptide): substantially attenuated
IL-25-induced eosinophilia (eosinophils in BAL) ([1]; intranasal IL-25, 4 days, vs scrambled peptide, listed as CC′ decoy peptide): reduced accumulation
IL-25-induced lung and airway recruitment of granulocytes, predominantly eosinophils (H&E) ([1]; vs scrambled peptide): reduced
mucin production (PAS staining) ([1]; vs scrambled peptide): reduced
inhibition of IL-25-mediated expression of Il13 [2]: ~60 % inhibition
IL-25-dependent signaling (pIκB, pJNK, pERK, pp38 MAPK) [3, 5]: partly attenuated
dose and time dependence of inhibition of IL-25-dependent signaling and gene expression ([3]; data not shown): dose-and time-dependent manner
IL-17-dependent signaling (pIκB, pJNK, pERK, pp38 MAPK) [4, 5]: partly attenuated
dose and time dependence of inhibition of IL-17-dependent signaling and gene expression ([4]; data not shown): dose-and time-dependent manner
